Values joined by “and” are separate entries in the source; they are usually repeats but may differ in a detail not shown here. Equal values may be shown once. Toxic doses and inconclusive results are not listed. The calls were made as follows: active = survival T/C of 150% or more; inactive = T/C below 125% in these data.
System: CD2F1 mice, L1210 leukemia ip, survival T/C
Test: NCI In Vivo Anticancer Drug Screen. Data for tumor model L1210 Leukemia (intraperitoneal) in CD2F1 (CDF1) mice
Conditions: higher = longer survival
Outline: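 Compound-dosed mice with transplantable tumor versus matched vehicle controls; endpoint ratio T/C reported.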

[1] = endpoint: mean survival time, dose: 100.0 mg/kg/injection, schedule: Q04DX003 (ip), vehicle: saline with Tween-80
[2] = endpoint: mean survival time, dose: 200.0 mg/kg/injection, schedule: Q04DX003 (ip), vehicle: saline with Tween-80
[3] = endpoint: mean survival time, dose: 400.0 mg/kg/injection, schedule: Q04DX003 (ip), vehicle: saline with Tween-80

Measured: T/C

Nc1n[n+](-c2ccc(Cl)cc2)no1
inactive: endpoint: mean survival time, dose: 1.56 mg/kg/injection, schedule: Q01DX009 (ip), vehicle: water 92 % of control | endpoint: mean survival time, dose: 3.12 mg/kg/injection, schedule: Q01DX009 (ip), vehicle: water 97 % of control and 112 % of control | endpoint: mean survival time, dose: 6.25 mg/kg/injection, schedule: Q01DX009 (ip), vehicle: water 93 % of control and 96 % of control | endpoint: mean survival time, dose: 12.5 mg/kg/injection, schedule: Q01DX009 (ip), vehicle: water 95 % of control and 98 % of control | endpoint: mean survival time, dose: 25.0 mg/kg/injection, schedule: Q01DX009 (ip), vehicle: water 103 % of control and 104 % of control | endpoint: mean survival time, dose: 50.0 mg/kg/injection, schedule: Q01DX009 (ip), vehicle: water 114 % of control

CCSc1nc(N)c2ncn(C3OC(CO)C(O)C3O)c2n1 (stereo unspecified)
inactive: endpoint: median survival time, dose: 10.0 mg/kg/injection, schedule: Q01DX005 (ip), vehicle: saline with Tween-80 103 % of control | endpoint: median survival time, dose: 20.0 mg/kg/injection, schedule: Q01DX005 (ip), vehicle: saline with Tween-80 100 % of control | endpoint: median survival time, dose: 40.0 mg/kg/injection, schedule: Q01DX005 (ip), vehicle: saline with Tween-80 91 % of control | endpoint: median survival time, dose: 80.0 mg/kg/injection, schedule: Q01DX005 (ip), vehicle: saline with Tween-80 88 % of control | endpoint: median survival time, dose: 160.0 mg/kg/injection, schedule: Q01DX005 (ip), vehicle: saline with Tween-80 93 % of control

Cc1cc(O)c(O)c(C(C)(C)CC(C)(C)C)c1
inactive: endpoint: mean survival time, dose: 12.5 mg/kg/injection, schedule: Q01DX009 (ip), vehicle: saline + alcohol 100 % of control | endpoint: mean survival time, dose: 25.0 mg/kg/injection, schedule: Q01DX009 (ip), vehicle: saline + alcohol 97 % of control | endpoint: mean survival time, dose: 50.0 mg/kg/injection, schedule: Q01DX009 (ip), vehicle: saline + alcohol 103 % of control | endpoint: mean survival time, dose: 100.0 mg/kg/injection, schedule: Q04DX003 (ip), vehicle: saline + alcohol 105 % of control | endpoint: mean survival time, dose: 200.0 mg/kg/injection, schedule: Q04DX003 (ip), vehicle: saline + alcohol 103 % of control | endpoint: mean survival time, dose: 400.0 mg/kg/injection, schedule: Q04DX003 (ip), vehicle: saline + alcohol 100 % of control

CC(=O)OCC1OC(OC2C(COC(C)=O)OC(Sc3ccc(C)cc3)C(OC(C)=O)C2OC(C)=O)C(OC(C)=O)C(OC(C)=O)C1OC(C)=O (stereo unspecified)
inactive: [1] 97 % of control | [2] 91 % of control | [3] 94 % of control

CC(C)C(NC1=NCCO1)c1ccccc1 (stereo unspecified)
inactive: endpoint: mean survival time, dose: 12.5 mg/kg/injection, schedule: Q04DX003 (ip), vehicle: saline with Tween-80 106 % of control | endpoint: mean survival time, dose: 25.0 mg/kg/injection, schedule: Q04DX003 (ip), vehicle: saline with Tween-80 98 % of control | endpoint: mean survival time, dose: 50.0 mg/kg/injection, schedule: Q04DX003 (ip), vehicle: saline with Tween-80 104 % of control

CCC(CC)COC(=O)c1ccccc1C(=O)OCC(CC)CC
inactive: endpoint: mean survival time, dose: 12.5 mg/kg/injection, schedule: Q01DX009 (ip), vehicle: saline with Tween-80 108 % of control | endpoint: mean survival time, dose: 25.0 mg/kg/injection, schedule: Q01DX009 (ip), vehicle: saline with Tween-80 101 % of control | endpoint: mean survival time, dose: 50.0 mg/kg/injection, schedule: Q01DX009 (ip), vehicle: saline with Tween-80 104 % of control | endpoint: mean survival time, dose: 100.0 mg/kg/injection, schedule: Q01DX009 (ip), vehicle: saline with Tween-80 102 % of control | endpoint: mean survival time, dose: 200.0 mg/kg/injection, schedule: Q01DX009 (ip), vehicle: saline with Tween-80 98 % of control | endpoint: mean survival time, dose: 400.0 mg/kg/injection, schedule: Q01DX009 (ip), vehicle: saline with Tween-80 100 % of control

Cc1ccc(S(=O)(=O)N(CCCc2c(C)nc(N)[nH]c2=O)Cc2cccc([N+](=O)[O-])c2)cc1
inactive: endpoint: mean survival time, dose: 100.0 mg/kg/injection, schedule: Q01DX001 (ip), vehicle: saline with Tween-80 92 % of control | endpoint: mean survival time, dose: 200.0 mg/kg/injection, schedule: Q01DX001 (ip), vehicle: saline with Tween-80 96 % of control | endpoint: mean survival time, dose: 400.0 mg/kg/injection, schedule: Q01DX001 (ip), vehicle: saline with Tween-80 92 % of control

CC1(C(F)(F)F)CC(=O)NN1 (stereo unspecified)
inactive: endpoint: mean survival time, dose: 12.5 mg/kg/injection, schedule: Q01DX009 (ip), vehicle: saline 95 % of control | endpoint: mean survival time, dose: 25.0 mg/kg/injection, schedule: Q01DX009 (ip), vehicle: saline 97 % of control | endpoint: mean survival time, dose: 50.0 mg/kg/injection, schedule: Q01DX009 (ip), vehicle: saline 97 % of control | [1] 97 % of control

NC(CCC(=O)NC(=O)OCc1ccccc1)C(=O)O (stereo unspecified)
inactive: [1] 93 % of control | [2] 101 % of control | [3] 90 % of control

O=C(Nc1cccc([N+](=O)[O-])c1)N(c1ccccc1)c1ccccc1
inactive: endpoint: mean survival time, dose: 100.0 mg/kg/injection, schedule: Q01DX001 (ip), vehicle: saline 88 % of control | endpoint: mean survival time, dose: 200.0 mg/kg/injection, schedule: Q01DX001 (ip), vehicle: saline 94 % of control | endpoint: mean survival time, dose: 400.0 mg/kg/injection, schedule: Q01DX001 (ip), vehicle: saline 93 % of control

C[NH-].C[NH-].[Br][Pt+2][Br]
inactive: endpoint: mean survival time, dose: 1.25 mg/kg/injection, schedule: Q04DX003 (ip), vehicle: water 106 % of control | endpoint: mean survival time, dose: 2.5 mg/kg/injection, schedule: Q04DX003 (ip), vehicle: water 108 % of control | endpoint: mean survival time, dose: 5.0 mg/kg/injection, schedule: Q04DX003 (ip), vehicle: water 110 % of control | endpoint: mean survival time, dose: 10.0 mg/kg/injection, schedule: Q04DX003 (ip), vehicle: water 97 % of control
